Target: T1, ITK (Mus musculus, UniProt Q03526)
T1 construct: administered to mice orally; from tissue; host or cells: mouse splenocytes (spleen) after oral dosing
T1 sequence (Q03526 1-625): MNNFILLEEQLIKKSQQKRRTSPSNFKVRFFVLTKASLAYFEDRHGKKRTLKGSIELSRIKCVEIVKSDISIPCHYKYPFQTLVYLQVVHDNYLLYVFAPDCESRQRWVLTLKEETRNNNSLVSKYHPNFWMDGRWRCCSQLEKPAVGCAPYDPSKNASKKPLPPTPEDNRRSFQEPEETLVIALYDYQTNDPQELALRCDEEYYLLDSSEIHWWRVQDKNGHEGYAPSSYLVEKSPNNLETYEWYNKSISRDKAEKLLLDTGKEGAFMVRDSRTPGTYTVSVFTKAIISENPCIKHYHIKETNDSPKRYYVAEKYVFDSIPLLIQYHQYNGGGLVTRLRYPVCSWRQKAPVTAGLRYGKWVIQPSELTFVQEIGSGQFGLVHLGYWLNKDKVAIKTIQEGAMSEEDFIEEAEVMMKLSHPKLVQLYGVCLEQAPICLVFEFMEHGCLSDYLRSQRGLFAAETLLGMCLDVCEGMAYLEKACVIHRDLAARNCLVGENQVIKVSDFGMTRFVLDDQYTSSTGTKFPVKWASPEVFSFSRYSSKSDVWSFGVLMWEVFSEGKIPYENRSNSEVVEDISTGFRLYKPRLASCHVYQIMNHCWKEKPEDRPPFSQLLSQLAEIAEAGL
Assay: Western Assay for ITK Degradation in Mouse Splenocytes after oral administration
Format: in vivo
Settings: for ITK (%) 90 mpk PO, 6 h / ITK (%) 60 mpk PO, 24 h: % ITK remaining in mouse splenocytes; for ITK degradation in vivo by Western blotting: mouse splenocytes, oral
Experimental: Compounds 30 and 31 were administered to mice orally. After 6 hours, splenocytes cells were harvested. ITK was evaluated by Western blotting. Media was removed and cell pellets were lysed in 100 μL lysis buffer (RIPA buffer (Fisher, PI89901), cOmplete Mini EDTA-free protease inhibitor (Sigma 11836170001), Protease Inhibitor Cocktail (Sigma, P2714), Phosphatase Inhibitor Cocktail 2 and 3 (Sigma, P5726 and P0044), Benzonase (Sigma, E1014)). Cells were lysed overnight at −20° C. Following thaw, cells were centrifuged for 10 min at 13000 rpm, then transferred to new tube. Protein levels were determined by BCA Assay performed according to manufacturer's protocol (EMD Millipore, cat. no. 71285-3). Samples were combined with (4×) LDS Sample Buffer and (10×) Reducing Agent and H2O to equally load 20 μg protein per lane of a 26-well NuPAGE 4-12% Bis-Tris protein gel (1.0 mm, Thermo cat. no. NP0326). Samples were separated by running gels at constant 150 V in NuPAGE MES SDS Running Buffer. Following electrophoresis, proteins were transferred to nitrocellulose membranes using an iBlot Gel Transfer Device and iBlot Gel Transfer Stacks (Thermo cat. no. IB21001 and IB301001) and transfer method P3 (20V for 7 min). Membranes were blocked for 1 hr in 5% milk solution (TBS (0.2% Tween-20)). Following blocking, membranes were incubated with primary antibody (1:1000 CST ITK (2F12) #2380) overnight at 4° C. with gentle shaking. Blots were washed 2× in TBS (0.2% Tween-20), 30 min per wash. Following washes, blots were incubated in secondary HRP-conjugated antibody (Promega anti-Mouse IgG (H+L) HRP cat. no. W4021), 1:5000 in 5% milk solution (TBS (0.2% Tween-20)), for 1 hr at room temperature with gentle shaking. Blots were washed 2× in TBS (0.2% Tween-20), 30 min per wash. Blots were incubated with 1:1 mix of ECL reagents 1 & 2 (Amersham ECL Western Blotting Detection Reagent, cat. no. RPN2106) for 2 min at room temperature. Bands were visualized using a Protein Simple imager. Blots were then re-probed with a combination of anti-actin antibody (Sigma Monoclonal Mouse Anti-β-Actin (clone AC-15), cat. no. A5441) and secondary HRP-conjugated antibody (Promega anti-Mouse IgG (H+L) HRP, cat. no. W4021) and similar steps were taken for incubation, wash, detection and visualization steps as above. The data was analyzed using Alpha View software. The densitometric reading for each sample band was normalized to that of the corresponding actin band per lane. Approximate % ITK remaining per sample was calculated as follows: […]
Once % ITK remaining has been calculated for each sample, groups are averaged together to show an means % ITK normalized to actin and relative to control.
Compounds 30 and 29 were administered to mice orally. After 6 hours or 24 hours, splenocytes cells were harvested. ITK was evaluated by Western blotting. Plasma concentrations were determined by LC/MS/MS. Plasma samples were protein precipitated by addition of 100 μl of acetonitrile containing 50 ng/ml of internal standard. The resulting mixture was vortexed and centrifuged at 4000 RPM for 5 minutes. An aliquot of the resultant supernatant (75 μl) was added to 75 μl of 0.1% formic acid in water to constitute the final sample for injection. Samples were injected on a Shimadzu Exion LC Binary Gradient AD Pump HLPC system connected to a Sciex QTRAP 6500+ mass spectrometer. Five μl of sample was injected onto a Waters Acquity UPLC BEH C18 column 130A (2.1×30 mm, […]) at 40° C. utilizing a flow rate of 700 μl/minute. Mobile Phase A was 0.1% formic acid in water and mobile phase B was 0.1% formic acid in acetonitrile. A linear gradient of 15-95% B over 1.0 minute was used. The mass spectrometer was operated in positive ion electrospray mode with multiple reaction monitoring for maximum sensitivity. Sciex Analyst software (version 1.6.3) was used for LC/MS/MS instrument control and acquisition. […]

SMILES	ITK (%) 90 mpk PO, 6 h	other results
CN(C(=O)CCC1CCN(c2ccc(C3CCC(=O)NC3=O)cn2)CC1)c1ccc2cc(-c3n[nH]c4c3C[C@@H]3C(F)(F)[C@]3(C)C4)[nH]c2c1 (stereo partly drawn) [Compound 4, N-(2-((4aS,5aR)-5,5-difluoro-5a-methyl-1,4,4a,5,5a,6-hexahydrocyclopropa[f]indazol-3-yl)-1H-indol-6-yl)-3-(1-(5-(2,6-dioxopiperidin-3-yl)pyridin-2-yl)piperidin-4-yl)-N-methylpropanamide]	76%	–
CN(C(=O)CC1CCN(CC2CCN(c3ccc(C4CCC(=O)NC4=O)cn3)CC2)CC1)c1ccc2cc(-c3n[nH]c4c3C[C@@H]3C(F)(F)[C@]3(C)C4)[nH]c2c1 (stereo partly drawn) [Compound 6, N-(2-((4aS,5aR)-5,5-difluoro-5a-methyl-1,4,4a,5,5a,6-hexahydrocyclopropa[f]indazol-3-yl)-1H-indol-6-yl)-2-(1-((1-(5-(2,6-dioxopiperidin-3-yl)pyridin-2-yl)piperidin-4-yl)methyl)piperidin-4-yl)-N-methylacetamide]	92%	–
C[C@@]12Cc3[nH]nc(C(=O)Nc4cnn(CC5CN(C(=O)C6CCN(c7ccc(C8CCC(=O)NC8=O)cn7)CC6)C5)c4)c3C[C@@H]1C2(F)F (stereo partly drawn) [Compound 22, (4aS,5aR)—N-(1-((1-(1-(5-(2,6-dioxopiperidin-3-yl)pyridin-2-yl)piperidine-4-carbonyl)azetidin-3-yl)methyl)-1H-pyrazol-4-yl)-5,5-difluoro-5a-methyl-1,4,4a,5,5a,6-hexahydrocyclopropa[f]indazole-3-carboxamide]	113%	–
C[C@@]12Cc3[nH]nc(C(=O)Nc4cnn(CC5CN(C(=O)C6CN(c7ccc(C8CCC(=O)NC8=O)cn7)C6)C5)c4)c3C[C@@H]1C2(F)F (stereo partly drawn) [Compound 23, (4aS,5aR)—N-(1-((1-(1-(5-(2,6-dioxopiperidin-3-yl)pyridin-2-yl)azetidine-3-carbonyl)azetidin-3-yl)methyl)-1H-pyrazol-4-yl)-5,5-difluoro-5a-methyl-1,4,4a,5,5a,6-hexahydrocyclopropa[f]indazole-3-carboxamide]	129%	–
C[C@@]12Cc3[nH]nc(-c4cc5ccc(N6CCC7(CCN(CC8CCN(c9ccc(C%10CCC(=O)NC%10=O)cn9)CC8)CC7)C6=O)cc5[nH]4)c3C[C@@H]1C2(F)F (stereo partly drawn) [Compound 28, 3-(6-(4-((2-(2-((4aS,5aR)-5,5-difluoro-5a-methyl-1,4,4a,5,5a,6-hexahydrocyclopropa[f]indazol-3-yl)-1H-indol-6-yl)-1-oxo-2,8-diazaspiro[4.5]decan-8-yl)methyl)piperidin-1-yl)pyridin-3-yl)piperidine-2,6-dione]	8%	–
C[C@@H](C(=O)N(C)c1ccc2cc(-c3n[nH]c4c3C[C@@H]3C(F)(F)[C@]3(C)C4)[nH]c2c1)N1CCN(CC2CCN(c3ccc(N4CCC(=O)NC4=O)cn3)CC2)CC1 [Compound 29, (S)—N-(2-((4aS,5aR)-5,5-difluoro-5a-methyl-1,4,4a,5,5a,6-hexahydrocyclopropa[f]indazol-3-yl)-1H-indol-6-yl)-2-(4-((1-(5-(2,4-dioxotetrahydropyrimidin-1(2H)-yl)pyridin-2-yl)piperidin-4-yl)methyl)piperazin-1-yl)-N-methylpropanamide]	14%	ITK degradation in vivo by Western blotting (6 hours): degraded ITK in vivo; ITK degradation in vivo by Western blotting (24 hours): degraded ITK
CC1(C)CCc2c(-c3cc4ccc(C(=O)N5CCC(CN6CCN(c7ccc(C8CCC(=O)NC8=O)nc7)CC6)CC5)cc4[nH]3)n[nH]c2C1 (stereo not shown) [Compound 35, 3-(5-(4-((1-(2-(6,6-dimethyl-4,5,6,7-tetrahydro-1H-indazol-3-yl)-1H-indole-6-carbonyl)piperidin-4-yl)methyl)piperazin-1-yl)pyridin-2-yl)piperidine-2,6-dione]	–	ITK (%) 60 mpk PO, 24 h: >100%
CC1(C)CCc2c(-c3cc4ccc(C(=O)N5CCC(CN6CCN(c7ccc(C8CCC(=O)NC8=O)cc7)CC6)CC5)cc4[nH]3)n[nH]c2C1 (stereo not shown) [Compound 37, 3-(4-(4-((1-(2-(6,6-dimethyl-4,5,6,7-tetrahydro-1H-indazol-3-yl)-1H-indole-6-carbonyl)piperidin-4-yl)methyl)piperazin-1-yl)phenyl)piperidine-2,6-dione]	–	ITK (%) 60 mpk PO, 24 h: >100%

Further lines, with some results ahead:

ITK (%) 90 mpk PO, 6 h	SMILES	other results
45%	CC1(C)CCc2c(-c3cc4ccc(N5CCC6(CCN(CC7CCN(c8ccc(C9CCC(=O)NC9=O)cn8)CC7)CC6)C5=O)cc4[nH]3)n[nH]c2C1 (stereo not shown) [Compound 24, 3-(6-(4-((2-(2-(6,6-dimethyl-4,5,6,7-tetrahydro-1H-indazol-3-yl)-1H-indol-6-yl)-1-oxo-2,8-diazaspiro[4.5]decan-8-yl)methyl)piperidin-1-yl)pyridin-3-yl)piperidine-2,6-dione]	–
11%	CC1(C)CCc2c(-c3cc4ccc(C(=O)N5CCN(CC6CCN(c7ccc(C8CCC(=O)NC8=O)cn7)CC6)CC5)cc4[nH]3)n[nH]c2C1 (stereo not shown) [Compound 26, 3-(6-(4-((4-(2-(6,6-dimethyl-4,5,6,7-tetrahydro-1H-indazol-3-yl)-1H-indole-6-carbonyl)piperazin-1-yl)methyl)piperidin-1-yl)pyridin-3-yl)piperidine-2,6-dione]	–
116%	C[C@@H](C(=O)N(C)c1ccc2cc(-c3n[nH]c4c3CCC(C)(C)C4)[nH]c2c1)N1CCN(CC2CCN(c3ccc(N4CCC(=O)NC4=O)cn3)CC2)CC1 [Compound 31, (S)—N-(2-(6,6-dimethyl-4,5,6,7-tetrahydro-1H-indazol-3-yl)-1H-indol-6-yl)-2-(4-((1-(5-(2,4-dioxotetrahydropyrimidin-1(2H)-yl)pyridin-2-yl)piperidin-4-yl)methyl)piperazin-1-yl)-N-methylpropanamide]	ITK degradation in vivo by Western blotting (6 hours): degraded ITK in vivo; ITK degradation in vivo by Western blotting (24 hours): degraded ITK in vivo
11%	C[C@@H](C(=O)N(C)c1ccc2cc(-c3n[nH]c4c3CCC(C)(C)C4)[nH]c2c1)N1CCN(CC2CCN(c3ccc(C4CCC(=O)NC4=O)cn3)CC2)CC1 (stereo partly drawn) [Compound 32, (2S)—N-(2-(6,6-dimethyl-4,5,6,7-tetrahydro-1H-indazol-3-yl)-1H-indol-6-yl)-2-(4-((1-(5-(2,6-dioxopiperidin-3-yl)pyridin-2-yl)piperidin-4-yl)methyl)piperazin-1-yl)-N-methylpropanamide]	–

— patent US20230158151A1 (NURIX THERAPEUTICS, INC., priority 2021, published 2023)
